Results on 1 substance are retold here after patent publication US10023615B2, “Efficient transport into white blood cells” (priority 2008, dated 2018).

Entries after “also recorded” stand apart in the source; their conditions may differ. Ends that are not written are not given here.

The test system of the test is bleomycin induced lung inflammation. Kind of test: Bleomycin (BLM) induced acute lung inflammation. In kind it is in vivo, C57BL/6 mice. The conditions noted are these: for cell recruitment in bronchoalveolar lavage space: single dose, 1 day. The text has this: In order to determine the activity of the exemplary all-D retro-inverso IB(s) peptide XG-102 (SEQ ID NO: 233) in the treatment of Chronic Obstructive Pulmonary Disease (COPD) XG-102 (SEQ ID NO: 233) is used in an animal model of Bleomycin induced acute lung inflammation and fibrosis. The protocol of bleomycin induced inflammation and fibrosis has been described before in the literature. The aim of the Experiment was to investigate the effect of XG-102 (SEQ ID NO: 233) by subcutaneous (s.c.) route on neutrophil recruitment in broncho alveolar lavage (BAL) and lung in bleomycin induced inflammation and fibrosis: • at 1 day after a single bleomycin administration (10 mg/kg) • and at day 10 with the development of fibrosis
1) Method and Experimental Approach • The test compound XG-102 (SEQ ID NO: 233) at two doses and vehicle control were given s.c. with a single intranasal administration of bleomycin and mice were analyzed after 1 and 10 days. The animals used in the model were 10 C57BL/6 mice (8 weeks old) per group. The experimental groups included vehicle, 0.001 mg/kg XG-102 (SEQ ID NO: 233) and 0.1 mg/kg XG-102 (SEQ ID NO: 233), and the treatment consisted of repeated sub-cutaneous administration of XG-102 (SEQ ID NO: 233), prior to bleomycin administration then every 3 days. Acute lung inflammation at 24 h was monitored by BAL lavage, cytology, cell counts, and lung myeloperoxidase activity. The effect of the compound was compared with vehicle controls. Lung fibrosis was assessed histologically using hematoxylin and eosin staining at day 10 after the single dose of bleomycin.
1.1) Bleomycin Administration • Bleomycin sulfate in saline (10 mg/kg body weight) from Bellon Laboratories (Montrouge, France) or saline were given through the airways by nasal instillation in a volume of 40 μL under light ketamine-xylasine anesthesia. The groups for Bleomycin administration for both bleomycin induced inflammation and fibrosis included: Vehicle, 0.001 mg/kg XG-102 (SEQ ID NO: 233) and 0.1 mg/kg XG-102 (SEQ ID NO: 233). The route for bleomycin induced inflammation was subcutaneous (s.c.) route, and administration occurred as a single dose. The route for bleomycin induced fibrosis was subcutaneous (s.c.) route, and administration occurred 3 times in 10 days.
1.2) Bronchoalveolar Lavage Fluid (BALE) • After incision of the trachea, a plastic cannula was inserted and airspaces were washed using 0.3 ml of PBS solution, heated to 37° C. The samples collected were dispatched in 2 fractions: the first one (1 ml corresponding to the 2 first lavages) was used for mediator measurement and the second one for the cell determination (4 ml). The first fraction was centrifuged (600 g for 10 min) and supernatant was fractionated and kept at −80° C. until mediator determination. The cell pellet was then resuspended in 0.4 ml sterile NaCl, 0,9%, and pooled with the second fraction and was used for cell counts.
1.3) Lung Homogenization • After BAL the whole lung was removed and placed inside a microtube (Lysing matrix D, Q Bio Gene, Illkrich, France) with 1 ml of PBS, total lung tissue extract was prepared using a Fastprep® system (FP120, Q Bio Gene, Illkrich, France), the extract was then centrifuged and the supernatant stored at −80° C. before mediator measurement and collagen assay with Sircol Collagen Assay (France Biochem Division, France).
1.4) Cell Count and Determination • Total cell count was determined in BAL fluid using a Malassez hemocytometer. Differential cell counts were performed on cytospin preparations (Cytospin 3, Thermo Shandon) after staining with MGG Diff-quick (Dade Behring AG). Differential cell counts were made on 200 cells using standard morphological criteria.
1.5) TNF Measurement • TNF level in BALF was determined using ELISA assay kits (Mouse DuoSet, R&D system, Minneapolis, USA) according to manufacturer's instructions. Results are reported as pg/ml. […]

As for “dqsrpvqpflnIttprkprpprrrqrrkkrg (DQSRPVQPFLNLTTPRKPRPPRRRQRRKKRG; not fully specified (some residues); printed as dqsrpvqpflnIttprkprpprrrqrrkkrg) [XG-102]”, the “cell recruitment in bronchoalveolar lavage space” value is, setting by setting: (0.001 mg/kg s.c.) “has no effect on neutrophil recruitment or other cell types into the bronchoalveolar space”; (0.1 mg/kg s.c.) “reduces significantly the neutrophil recruitment and the number of total cells recruited; also recorded: decreases the neutrophil and total cell recruitment into the bronchoalveolar space”. For the setting “MPO not significantly induced after bleomycin”, the “MPO levels in the lung” value was “no effect on MPO levels in the lung; also recorded: no effect on the MPO levels in the lung”. In addition, the “TNF level in BALF” value (TNF levels very low after BLM) was “a trend to reduction of the TNF level in BALF; also recorded: induces a trend to decrease the TNF level”. In addition, the “Bleomycin-induced inflammation (conclusion)” value (mouse, in vivo) is “reduces the Bleomycin-induced inflammation”. Where the note is “peribronchial space”, the “histology: inflammatory cell accumulation” value is listed as “a decrease of the inflammatory cell accumulation in the peribronchial space”.
